Data on 34 molecules can be found in US8455528B2, “Imidazole derivatives useful as inhibitors of FAAH” (Merck Sharp & Dohme Corp., priority 2008, dated 2013).

The structures appear in SMILES notation. pIC50: −log10 of the molar value. Where a name gives a salt, the structure may show the parent alone.

In the first test the target is T1, Human FAAH (Homo sapiens, UniProt O00519).
T1 construct: The full length FAAH was subcloned into the mammalian expression vector, pcDEF.neo; expressed in transfected cells
T1 sequence (O00519 1-579): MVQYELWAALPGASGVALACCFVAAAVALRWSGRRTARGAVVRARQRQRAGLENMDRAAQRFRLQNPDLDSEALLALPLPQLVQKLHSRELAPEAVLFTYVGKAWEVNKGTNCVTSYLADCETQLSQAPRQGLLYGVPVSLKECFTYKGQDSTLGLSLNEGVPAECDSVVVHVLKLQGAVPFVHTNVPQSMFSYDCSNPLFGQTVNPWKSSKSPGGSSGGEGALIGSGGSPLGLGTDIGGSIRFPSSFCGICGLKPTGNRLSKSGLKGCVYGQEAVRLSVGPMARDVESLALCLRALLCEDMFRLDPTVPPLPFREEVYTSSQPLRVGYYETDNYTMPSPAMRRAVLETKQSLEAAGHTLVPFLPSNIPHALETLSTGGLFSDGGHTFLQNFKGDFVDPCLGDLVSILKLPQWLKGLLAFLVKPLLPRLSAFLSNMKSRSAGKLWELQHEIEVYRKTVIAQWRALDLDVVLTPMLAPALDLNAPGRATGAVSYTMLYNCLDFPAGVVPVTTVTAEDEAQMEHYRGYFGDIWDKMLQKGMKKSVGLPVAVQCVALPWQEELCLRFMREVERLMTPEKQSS
Briefly: Human FAAH lysate assay (CHO cell lysate, AAMCA fluorescent substrate). Format: biochemical. To be noted: FAAH inhibition, CHO cell lysate expressing human FAAH; read-out: Human Lysate. The source says:
To assist in assay development stable cell lines for human, murine and rat full length FAAH were developed. Human FAAH cDNA (Accession No: NM-001441.1) was purchased from Origene (Rockville, Md.). The full length FAAH was subcloned into the mammalian expression vector, pcDEF.neo, using XbaI and EcoRI restriction sites and used for stable cell line generation. CHO cells expressing FAAH were used to prepare either crude cell lysate or microsome fractions. To harvest cells, tissue culture media was decanted, the monolayer washed three times with Ca^++Mg^++ free PBS and cells recovered after 15 min in enzyme free dissociation media (Millipore Corp, Billerica, Mass.). Cells were collected by centrifuging at 2000 rpm for 15 min. and the cell pellet re-suspended with 50 mM HEPES (pH 7.4) containing 1 mM EDTA and the protease inhibitors aprotinin (1 mg/ml) and leupeptin (100 μM). […] The pellet containing FAAH-enriched microsomes was re-suspend in 50 mM HEPES, (pH 7,4) 1 mM EDTA, and any remaining DNA sheared by passage of material through a 23 gauge needle and aliquots of enzyme were store at -80° C. prior to use. […] (American Radiolabeled Chemicals; 1 mCi/ml) with FAAH (Life Sciences (1995), 56, 1999-2005 and Journal of Pharmacology and Experimented Therapeutics (1997), 283, 729-734), Analytical. Biochemistry (2003), 318, 270-5. […] Analytical. Biochemistry (2005). 343, 143-51 […] Fluorescent release as a measure of FAAH activity was monitored by reading the plate in a CytoFluor Multiplate Reader ([…]). Whole cell assay is conducted with cells harvested after rinsing tissue culture flasks three times with Ca^++Mg^++ free PBS, incubating for 10 min in Enzyme free dissociation media and centrifuging for 5 minutes at 1,000 rpm in table top centrifuge. Cells are resuspended in assay buffer at desired cell number in (4×10^4 cells/assay in 96-well format; 1×10^4 cells/assay in 384-well format) and assayed as described. […] The reaction was terminated by addition of 2 volumes of chloroform:methanol (1:1) and mixed by vortexing. […] K., et al. A fluorescence-based assay for fatty acid amide hydrolase compatible with high-throughput screening. Anal. Biochem. 343:143-51 (2005) • Wilson S. J., et l. A high-throughput-compatible assay for determining the activity of fatty acid amide hydrolase. Anal Biochem. 318:270-5 (2003).
For `Cn1c(-c2ccccc2)nc(Sc2ccc(Cl)cc2)c1-c1ccc(C#N)cc1` [Ex 3, 4-{4-[(4-chlorophenyl)thio]-1-methyl-2-phenyl-1H-imidazol-5-yl}benzonitrile], the pIC50 is 6.43.

The same test, now with this note: human FAAH lysate; read-out: Human FAAH lysate assay: IC50.
`Cn1cnc(-c2ccc(OC(C)(C)CO)cc2)c1Sc1ccc(Cl)cn1` [Example 125, 5-[(5-chloropyridin-2-yl)thio]-4-[4-(2-hydroxy-1,1-dimethylethoxy)phenyl]-1-methyl-1H-imidazol-3-ium trifluoroacetate]: the pIC50 is 6.70. On the same count and under the same terms, the value for `Cn1cnc(-c2ccc(OC(C)(C)C(O)C(F)(F)F)cc2)c1Sc1ccc(Cl)cn1` (stereo not shown) [Example 126, 3-(4-{5-[(5-chloropyridin-2-yl)thio]-1-methyl-1H-imidazol-4-yl}phenoxy)-1,1,1-trifluoro-3-methylbutan-2-ol] was 6.73; that for `Cn1c(-c2cc(C3CC3)on2)nc(-c2ccc(C(C)(C)O)nc2)c1Sc1ccc(Cl)cn1` [Example 148, 2-(5-{5-[(5-chloropyridin-2-yl)sulfanyl]-2-(5-cyclopropylisoxazol-3-yl)-1-methyl-1H-imidazol-4-yl}pyridin-2-yl)propan-2-ol] was 7.04; that for `Cn1c(-c2ccccn2)nc(-c2ccc(-c3ccco3)cc2)c1Sc1ccc(Cl)cc1` [Example 116, 5-[(4-chlorophenyl)thio]-4-[4-(2-furyl)phenyl]-1-methyl-2-pyridin-2-yl-1H-imidazol-3-ium trifluoroacetate] was 7.76. The same measure, in the same setting: the value for `Cn1cnc(-c2ccc(OC(C)(C)C(N)=O)cc2)c1Sc1ccc(Cl)cn1` [Example 124, 2-(4-{5-[(5-chloropyridin-2-yl)thio]-1-methyl-1H-imidazol-4-yl}phenoxy)-2-methylpropanamide] was 7.44; that for `Cn1c(-c2ccccn2)nc(-c2ccc(C(C)(C)O)nc2)c1Sc1ccc(Cl)cc1` [Example 105, 2-(5-{5-[(4-Chlorophenyl)thio]-1-methyl-2-pyridin-2-yl-1H-imidazol-4-yl}pyridin-2-yl)propan-2-ol] was 7.42. `CCOC(C)(C)c1nc(-c2ccc(-c3ncon3)cc2)c(Sc2ccc(Cl)cc2)n1C` [Example 147, 3-(4-{5-[(4-chlorophenyl)sulfanyl]-2-(2-ethoxypropan-2-yl)-1-methyl-1H-imidazol-4-yl}phenyl)-1,2,4-oxadiazole]: the pIC50 is 7.61. Still for that read-out and setting: with `CC(C)(O)c1ccc(-c2nc3c4ncccc4ccn3c2Sc2ccc(Cl)cc2)cc1` [Example 130, 2-(4-{3-[(4-chlorophenyl)sulfanyl]imidazo[1,2-h][1,7]naphthyridin-2-yl}phenyl)propan-2-ol] the figure was 7.33; with `Cn1c(-c2ccn(CC(C)(C)O)n2)nc(-c2ccc(C#N)cc2)c1Sc1ccc(Cl)cc1` [Example 145, 4-{5-[(4-chlorophenyl)sulfanyl]-2-[1-(2-hydroxy-2-methylpropyl)-1H-pyrazol-3-yl]-1-methyl-1H-imidazol-4-yl}benzonitrile], 7.64; with `Cn1c(C(C)(C)O)nc(-c2ccc(-c3ncon3)cc2)c1Sc1ccc(Cl)cc1` [Example 146, 2-{5-[(4-chlorophenyl)sulfanyl]-1-methyl-4-[4-(1,2,4-oxadiazol-3-yl)phenyl]-1H-imidazol-2-yl}propan-2-ol], 6.68. Regarding `CC(C)n1ccc(-c2nc(-c3ccc(-c4ncon4)cc3)c(Sc3ccc(Cl)cc3)n2C)n1` [Example 142, 3-(4-{5-[(4-chlorophenyl)sulfanyl]-1-methyl-2-[1-(propan-2-yl)-1H-pyrazol-3-yl]-1H-imidazol-4-yl}phenyl)-1,2,4-oxadiazole], the pIC50 is 7.81. Same read-out and setting: with `CCn1nccc1-c1nc(-c2ccc(-c3ncon3)cc2)c(Sc2ccc(Cl)cc2)n1C` [Example 141, 3-(4-{5-[(4-chlorophenyl)sulfanyl]-2-(1-ethyl-1H-pyrazol-5-yl)-1-methyl-1H-imidazol-4-yl}phenyl)-1,2,4-oxadiazole] the figure was 7.17; with `Cn1ccc(-c2nc(-c3ccc(-c4ncon4)cc3)c(Sc3ccc(Cl)cc3)n2C)n1` [Example 143, 3-(4-{5-[(4-chlorophenyl)sulfanyl]-1-methyl-2-(1-methyl-1H-pyrazol-3-yl)-1H-imidazol-4-yl}phenyl)-1,2,4-oxadiazole], 7.93. On the same count and under the same terms, with `Cn1cc(-c2nc(-c3ccc(S(C)(=O)=O)cc3)c(Sc3ccc(Cl)cc3)n2C)cn1` [Example 134, 4-{5-[(4-chlorophenyl)sulfanyl]-1-methyl-4-[4-(methylsulfonyl)phenyl]-1H-imidazol-2-yl}-1-methyl-1H-pyrazole] the figure was 7.86. As for `Cn1c(I)nc(-c2ccc(S(C)(=O)=O)cc2)c1Sc1ccc(Cl)cc1` [Example 133, 5-[(4-chlorophenyl)thio]-2-iodo-1-methyl-4-[4-(methylsulfonyl)phenyl]-1H-imidazole], the pIC50 was 7.81.

Staying with this test, now noted: human FAAH lysate; read-out: hFAAH lysate IC50.
`Cn1c(-c2ccsc2)nc(-c2ccc(S(C)(=O)=O)cc2)c1Sc1ccc(Cl)cc1` [Example 135]: the pIC50 was 7.59. On the same count and under the same terms, the value for `Cn1c(-c2ccccn2)nc(-c2ccc(C(C)(C)O)nc2)c1Sc1ccc(F)cn1` [Example 109] was 6.87; that for `Cn1c(-c2ccccn2)nc(-c2ccc(C(C)(C)O)nc2)c1Sc1ccc(F)c(F)c1` [Example 107] was 7.22; that for `COc1ccc(-c2nc(-c3ccc(S(C)(=O)=O)cc3)c(Sc3ccc(Cl)cc3)n2C)cn1` [Example 136] was 6.91.

For `Cn1c(-c2ncco2)nc(-c2ccc(S(C)(=O)=O)cc2)c1Sc1ccc(Cl)cc1` [Example 139], the pIC50 is 7.67. Still for that read-out and setting: with `Cn1c(-c2ccccn2)nc(-c2ccc(-c3ccsc3)cc2)c1Sc1ccc(Cl)cc1` [Example 117] the figure was 8.06; with `Cn1c(-c2ccccn2)nc(-c2ccc(S(C)(=O)=O)nc2)c1Sc1ccc(F)cc1F` [Example 102], 7.81; with `Cn1c(-c2ccccn2)nc(-c2ccc(C(C)(C)O)nc2)c1Sc1ccc(F)cc1F` [Example 108], 7.48. As for `Cn1c(-c2ccccn2)nc(-c2ccc(S(C)(=O)=O)nc2)c1Sc1ccc(Cl)cc1` [Example 101], the pIC50 was 8.20. In the case of `Cn1c(-c2ccccn2)nc(-c2ccc(-c3ncco3)cc2)c1Sc1ccc(Cl)cn1` [Example 120], the pIC50 was 7.58. Same read-out and setting: with `Cn1c(-c2ccccn2)nc(-c2ccc(-c3cccs3)cc2)c1Sc1ccc(Cl)cc1` [Example 121] the figure was 7.73; with `Cn1c(-c2ccccn2)nc(-c2ccc(C(C)(C)O)nc2)c1Sc1ccc(Cl)cc1F` [Example 110], 7.47. Still for that read-out and setting: with `Cn1c(-c2ccccn2)nc(-c2ccc(C(C)(C)O)nc2)c1Sc1ccc(Cl)cn1` [Example 106] the figure was 7.42; with `COc1cnc(Sc2c(-c3ccc(S(C)(=O)=O)nc3)nc(-c3ccccn3)n2C)nc1` [Example 104], 6.69. Still for that read-out and setting: with `Cn1c(-c2ccccn2)nc(-c2ccc(-c3ccnnc3)cc2)c1Sc1ccc(Cl)cn1` [Example 122] the figure was 7.80; with `CN(C)C(=O)c1ccc2cc(-c3nc(C4CC4)n(C)c3Sc3ccc(Cl)cn3)ccc2n1` [Example 132, 6-{5-[(5-chloropyridin-2-yl)thio]-2-cyclopropyl-1-methyl-1H-imidazol-4-yl}-N,N-dimethylquinoline-2-carboxamide], 6.84. As for `COC(=O)c1ccc(-c2nc3c4ncccc4ccn3c2Sc2ccc(Cl)cc2)cc1` [Example 129], the pIC50 was 7.92.

Take `Cn1c(-c2ccc(F)cc2)nc(-c2ccc(C(C)(C)O)nc2)c1Sc1ccc(Cl)cc1` [Example 115]: the pIC50 is 7.17.
